Series [1] relates to porcine fibroblasts. Kind of series: Ki-67 immunostaining of fibroblasts in conditioned medium. The format is cell-based. To be noted: conditioned medium from treated scaffolds. The procedure:
Conditioned and control media were prepared by the method described in Example 6-1, and about 5000 porcine fibroblasts were cultured on gelatin-coated 4-well plates for 24 hours. Then, the medium was switched to conditioned or control medium. The medium was changed every 24 hours. The proliferation potential of the soluble factors eluted from the scaffolds was checked after incubation for 24 hour and 48 hours. Cells were immunostained using anti-Ki-67 antibody (Abcam, Cambridge, UK). Texas Red goat anti-rabbit IgG (Invitrogen) was used as a secondary antibody. Nuclei were counterstained using a mounting medium containing DAPI. The percentage of Ki-67 positive cells was calculated as the ratio of average positive Ki-67 cells relative to 250 DAPI-stained cells.

The subject of series [2] is porcine fibroblasts. The experiment in a line: MTT cell attachment assay on sterilized scaffolds. To be noted: incubated for 3 hours to attach, viable for 16 hours.
Experimental: Then, a 100 μL aliquot of DMEM in which porcine fibroblasts were suspended was added to each scaffold disc such that a total of about 50,000 fibroblasts were seeded on the plates. Then, the plate was incubated at 37° C. in 5% CO2 atmosphere for 3 hours to allow the fibroblasts to attach to scaffold substrates. The scaffold substrates were carefully transferred to another well such that the cells attached to the scaffold would remain undisturbed. Then, the plate was incubated at 37° C. in 5% CO2 atmosphere for 12 hours. Then, 10 μL of MTT solution (3-[4,5-dimethylthiazol-2yl]-2,5-diphenyltetrazolium bromide; 5 mg/ml, Sigma Aldrich) dissolved in PBS was added to each well and incubated at 37° C. in 5% CO2 atmosphere for 5 hours. Then, the media were removed and 200 μL of dimethyl sulfoxide (DMSO) was added to each well to dissolve the formazan by pipetting. After incubation for 10 minutes, 100 μL of solutions from the respective substrate wells were pipetted into another 96-well plate. Finally, the absorbance of the samples was determined using a spectrophotometer with a test wavelength of 570 nm and a reference wavelength of 630 nm.
Series [3] deals with collagen in porcine liver scaffolds. Kind of series: Collagen content, Sircol collagen dye-binding assay. Conditions: relative to native liver. Here is the method: To evaluate the effects of the slightly acidic electrolyzed water of the present invention on the content of collagen, the total collagen levels in native liver, decellularized scaffolds (untreated), scaffolds treated with PBS, PAA, or ethanol, and scaffolds treated with the slightly acidic electrolyzed water of the present invention were determined using a Sircol collagen dye-binding assay kit (Biocolor Ltd.) according to the manufacturer's instructions.
In more detail, lyophilized samples of native porcine liver slices, scaffolds decellularized by the method of Example 1, porcine liver scaffolds treated with PAA, PBS, ethanol, and slightly acidic electrolyzed water, respectively, were prepared. Then, total acid pepsin-soluble collagen was obtained after incubation in 0.5 M acetic acid containing 0.1 mg/ml pepsin. A 100 μL aliquot of acid neutralizing reagent was added to the acid-pepsin extract. Then, the extract was centrifuged after an overnight incubation at 4° C. Then, 1 mL Sircol dye reagent was added to the pellet and incubated at 25° C. for 30 minutes. After centrifugation, the pellet was washed with acid-salt wash reagent and suspended in 1 mL of alkaline reagent. Then, the absorbance was measured at 540 nm.

Series [4] is described as follows: Glycosaminoglycan content, dimethyl methylene blue dye-binding assay (Blyscan kit). Also on record: species or system porcine. Conditions: for content of glycosaminoglycans, % of that in untreated and decellularized scaffolds: relative to untreated and decellularized scaffolds; for content of glycosaminoglycans, % of that in untreated scaffolds: relative to untreated scaffolds. The procedure:
To evaluate the effects of the slightly acidic electrolyzed water of the present invention on the content of glycosaminoglycans, the content of glycosaminoglycans in decellularized liver (untreated scaffolds), scaffolds treated with PBS, and scaffolds treated with the slightly acidic electrolyzed water of the present invention were determined using a dimethyl methylene blue dye-binding assay kit (Blyscan kit; Biocolor Ltd) according to the manufacturer's instructions. First, 5 mg of lyophilized sample was homogenized and solubilized. A 100 μL aliquot from each sample lysate was added to 1 mL of dimethyl methylene blue solution and agitated on a shaker at 25° C. for 30 minutes. The resulting solutions were then centrifuged at 10,000×g for 10 minutes to collect the GAG dye complex, and the supernatants were discarded. The remaining pellet was suspended in 1 mL of the provided dissociation reagent, and the absorbance was measured at 655 nm. Chondroitin sulfate provided in the kit was used as a standard of glycosaminoglycans.

Another series has as its system porcine skin fibroblasts. Kind of series: Cytotoxicity test (MTT) with conditioned medium from sterilized scaffolds. The format is cell-based. To be noted: conditioned medium from treated scaffolds. The procedure:
Conditioned cell culture media were prepared from scaffolds treated with the slightly acidic electrolyzed water of the present invention. In brief, serum-free DMEM cell culture medium was incubated overnight with each SAEW-treated scaffold at a concentration of 0.2 g/ml media at 37° C. in a shaker at 70 rpm/min. Cell culture media without scaffolds were prepared by the same method as above to provide unconditioned controls. After incubation, the scaffolds were removed and the medium was filtered through a 0.4 μm filter to prepare culture medium containing soluble factors released from extracellular matrix.
The medium in which fibroblasts were incubated was aspirated, followed by the addition of conditioned or unconditioned culture medium containing 10% FBS and 1% penicillin-streptomycin (Gibco, Grand Island, N.Y., USA) to the well with attached fibroblasts, and the plate was incubated 37° C. in 5% CO2 atmosphere for 24 hours and 48 hours (the culture medium was changed every 24 hours).

The next series relates to porcine liver scaffolds. Kind of series: Sterilization effect on scaffolds according to culture time (DMEM + 10% FBS, Columbia blood agar). The procedure:
First, the porcine liver scaffolds prepared in Example 1 were divided into two groups: an experimental group in which the scaffolds were immersed in the slightly acidic electrolyzed water prepared in Example 2 to be sterilized for […], 60 minutes, 90 minutes, and 120 minutes, respectively; and a control group in which the scaffolds were treated with PBS, peracetic acid (PAA) solution (Sigma-Aldrich, St Louis, Mo., USA), and 70% ethanol solution (Daejung Chemicals and Metals, Seoul, Korea), instead of the slightly acidic electrolyzed water. The slightly acidic electrolyzed water was changed every 15 minutes to be the best fit for sterilization of the porcine liver scaffolds, and the sterilized porcine liver scaffolds were washed with PBS once.
The porcine liver scaffolds of the experimental group and the control group treated by the method described in the above section 3-1 were incubated in Dulbecco's Modified Eagle's Medium (DMEM; Invitrogen, Carlsbad, Calif., USA) supplemented with 10% fetal bovine serum (FBS, Hyclone, Logan, Utah, USA) at 37° C. and on Columbia blood agar medium (Fluka Chemie GmbH) for 96 hours and then checked periodically for signs of infection. In the event of infection, the discoloration and turbidity of medium increases, and the growth of cell colonies is observed on blood agar medium.
In Table 2, (−) represents that no symptoms of infection were observed; (+) represents that symptoms of infection were observed; (x) represents that symptoms of infection were observed before observation time; native liver, decellularized liver, and PBS-treated liver were used as positive controls; and medium without scaffolds was used as the negative control.

Series [5] has as its system DNA in porcine liver scaffolds. The experiment in a line: DNA content of treated scaffolds (removal of immunogenic antigens). To be noted: relative to untreated scaffolds. Here is the method: First, lyophilized samples of native porcine liver slices, scaffolds decellularized by the method of Example 1, porcine liver scaffolds treated with 0.1% peracetic acid solution (PAA; Sigma-Aldrich, St Louis, Mo., USA), PBS, 70% ethanol (Daejung Chemicals and Metals, Seoul, Korea), and slightly acidic electrolyzed water were prepared. Then, DNA was extracted from the lyophilized samples using the DNeasy Blood and Tissue Kit (Qiagen, Hilden, Germany).

`CCO` [Ethanol, ethanol]: in the series with porcine fibroblasts [1], the “percentage of Ki-67 positive cells compared to the control group” value was “no significant difference”. Also, the “seeded fibroblasts attached to scaffolds and remaining viable” value in the series with porcine fibroblasts [2] came out at 64.86±3.48%. The “content of collagen, % of that in native liver” value in series [3] is listed as 87.54±4.07%. In series [4], the “content of glycosaminoglycans, % of that in untreated and decellularized scaffolds” value came out at 64.16±1.92%. For the same compound, in series [4], the “content of glycosaminoglycans, % of that in untreated scaffolds” value worked out at 49.1±1.47%. Moreover, the entries for the “proliferation rate of fibroblasts compared to unconditioned medium” value in the series with porcine skin fibroblasts (incubation for 24 hours) and in the series on porcine skin fibroblasts (incubation for 48 hours) were 109.22±5.58% and 113.95±6.67%, respectively. Moreover, the symptoms of infection entry in the series on porcine liver scaffolds (Columbia blood agar, 6 hour) is “−”; in the series on porcine liver scaffolds (Columbia blood agar, 24 hour), “−”; in the series with porcine liver scaffolds (Columbia blood agar, 36 hour), “−”; with porcine liver scaffolds (Columbia blood agar, 48 hour) it was “−”; with porcine liver scaffolds (Columbia blood agar, 60 hour), “+”; in the series on porcine liver scaffolds (DMEM + 10% FBS, 6 hour) it was “−”. Also, the symptoms of infection entry in the series with porcine liver scaffolds (DMEM + 10% FBS, 24 hour) was “−”; in the series on porcine liver scaffolds (DMEM + 10% FBS, 36 hour) it was “−”; in the series with porcine liver scaffolds (DMEM + 10% FBS, 48 hour), “−”; in the series on porcine liver scaffolds (DMEM + 10% FBS, 60 hour), “−”; with porcine liver scaffolds (DMEM + 10% FBS, 72 hour), “+”.

In the case of `CC(=O)OO` [PAA, peracetic acid], the “percentage of Ki-67 positive cells compared to the control group” value with porcine fibroblasts [1] is “no significant difference”. The “seeded fibroblasts attached to scaffolds and remaining viable” value in the series with porcine fibroblasts [2] stood at 71.50±1.95%. Moreover, the “content of glycosaminoglycans, % of that in untreated and decellularized scaffolds” value in series [4] turned out to be 56±1.04%. In addition, in series [4], the “content of glycosaminoglycans, % of that in untreated scaffolds” value is 43±0.80%. In addition, the results for the “proliferation rate of fibroblasts compared to unconditioned medium” value in the series with porcine skin fibroblasts (incubation for 24 hours) and with porcine skin fibroblasts (incubation for 48 hours) were 119.18±5.6% and 127.43±6.68%, respectively. Moreover, the “efficiency for removing the DNA content” value in series [5] was found to be 93.13±2.82%. Also, the symptoms of infection entry in the series with porcine liver scaffolds (Columbia blood agar, 6 hour) was “−”; with porcine liver scaffolds (Columbia blood agar, 24 hour), “−”; in the series with porcine liver scaffolds (Columbia blood agar, 36 hour) it was “−”; in the series on porcine liver scaffolds (Columbia blood agar, 48 hour), “−”; in the series on porcine liver scaffolds (Columbia blood agar, 60 hour), “−”; in the series with porcine liver scaffolds (Columbia blood agar, 72 hour) it was “−”. Besides, the symptoms of infection result is recorded as “−” with porcine liver scaffolds (Columbia blood agar, 96 hour); “−” with porcine liver scaffolds (DMEM + 10% FBS, 6 hour); “−” with porcine liver scaffolds (DMEM + 10% FBS, 24 hour); “−” in the series on porcine liver scaffolds (DMEM + 10% FBS, 36 hour); “−” in the series on porcine liver scaffolds (DMEM + 10% FBS, 48 hour); “−” with porcine liver scaffolds (DMEM + 10% FBS, 60 hour). Besides, the symptoms of infection entry is “−” in the series on porcine liver scaffolds (DMEM + 10% FBS, 72 hour) and “−” in the series on porcine liver scaffolds (DMEM + 10% FBS, 96 hour).

The record behind these values is patent US9232804B2, “Compositions and methods for sterilizing bioscaffolds” (KNU University-Industry Cooperation Foundation, priority 2012, dated 2016).
